# According to ChEMBL document CHEMBL3507680, “University of Dundee, Gates Library screen for HepG2 cell viability”:
# Test: Human HepG2 cell viability assay in 384 well format
# Assay type: toxicity, cell-based
# Parameters: dose 125 nL, time 70.5 hour; concentration not given beside the values
# Conditions: HepG2 cells, read-out: Inhibition
row,Structure (SMILES),cytotoxicity at 70.5 h [%]
1,O=c1cc(N2CCc3ccccc3C2)cnn1CCC1CCOC1 (configuration not stated),1.4
2,COc1ccc(CN2CC[C@@H](O)[C@@H]2Cc2cnn(C)c2)cc1,21.7
3,Cc1ccc(CC(=O)NCC(O)c2cccc(C(F)(F)F)c2)cn1 (configuration not stated),-0.0497
4,Cc1ccc(-c2cn[nH]c2C2CCCN(c3cnccn3)C2)cc1 (configuration not stated),10.6
5,Cc1cccc(S(=O)(=O)N2CCCC3(CCCN3S(C)(=O)=O)C2)c1 (configuration not stated),3.22
6,COCCC(=O)Nc1nc2c(OC)cc(F)cc2s1,-4.65
7,Cc1ccc(C(=O)N2CC[C@H]3[C@@H]2CCC(=O)N3c2cccnc2)o1,-13.5
8,c1cc(C2CCN(Cc3ccc4c(c3)OCO4)CC2)ccn1,-2.31
9,O=C(CN1CCOc2ccc(Cl)cc21)NCCCn1ccnc1,-5.4
10,CNC(=O)c1cc2c(nc1N(C)C)CCN(S(=O)(=O)N(C)C)CC2,4.98
11,CC(C)n1nc2c(cc1=O)CN(Cc1nnc(C3CC3)o1)CC2,-3.62
12,COc1cccc(CN2CCCCCC2c2sccc2C)c1O (configuration not stated),1.85
13,O=C1CO[C@@H]2CN(Cc3cccs3)C[C@H]2N1CC1CC1,-9.66
14,COC(C)(C)C(=O)NCC1CCN(Cc2cc3ccccc3[nH]2)C1 (configuration not stated),-17.4
15,Cn1nc(C2CCN(C(=O)Cc3cccc(F)c3)CC2)c2cccnc21,-6.14
16,O=C(CCc1cc2n(n1)CCN(CCCn1cccc1)C2)N1CCCC1,-10.4
17,N#Cc1ccccc1CN1CCC(c2nccn2CC2CCC2)CC1,-1.95
18,COc1ccnc(N2CCN(C(=O)c3ccn(C)c(=O)c3)CC2)n1,-1.1
19,O=C(CNC(=O)N1CCc2c([nH]c3ccc(Cl)cc23)C1)N1CCOCC1,37.5
20,COCCn1nc(C(=O)N2CCN(C)CC2C)ccc1=O (configuration not stated),-4.08
21,Cc1nc(CN2CCCC(CCc3cccc(C(F)(F)F)c3)C2)co1 (configuration not stated),-3.79
22,c1cncc(N2CCC3(CCCN(c4ccncc4)C3)CC2)c1,-6.14
23,Cn1nc(CN2CCCN(C3CCCC3)CC2)c2c(Cl)cccc21,-6.04

row,Structure (SMILES),cytotoxicity at 70.5 h [%]
1,Cc1ccc2cc(CN(C)Cc3ccncn3)c(=O)[nH]c2c1,-13.2
2,Cc1n[nH]c(C)c1CCC(=O)NCC1CCOc2ccccc2C1 (configuration not stated),12.2
3,CCCn1cnc(NC(=O)NCC2CCS(=O)(=O)C2)n1 (configuration not stated),12.9
4,CN(C)C(=O)COC1COC2(CCN(c3cccc(F)c3)CC2)C1 (configuration not stated),2.89
5,COC(=O)NC1(C(=O)Nc2ccc(-c3ncc[nH]3)cc2)CCCC1,1.15
6,Cc1noc([C@@H]2C[C@@H]3CCN(CC4CCOCC4)C[C@H]3O2)n1,-4.62
7,O=C1CC(NCc2ccccn2)CN1CCc1ccc(F)cc1 (configuration not stated),20.5
8,CCc1cnc(CN(C)C2CCN(CCS(C)(=O)=O)C2)o1 (configuration not stated),-6.45
9,O=C(c1ccccn1)N1C[C@@H]2CC[C@H](C1)N(C(=O)c1ccsc1)C2,26.5
10,CN(C(=O)CN1CCc2nn(C)c(=O)cc2C1)c1nccs1,-4.13
11,Cc1c[nH]nc1C1CCN(C(=O)CC2CCCC2)C1 (configuration not stated),-6.41
12,Cc1ccc(CN2CC[C@H]3OCC[C@@]3(C(=O)N3CCCO3)C2)s1,-5.95
13,O=C(CC1CCCC1)N1C[C@H](Oc2cccnc2)[C@H]2OCCC[C@H]21,-16.9
14,Cc1cc(CN2CCCC2c2noc(C(C)C)n2)on1 (configuration not stated),-15.4
15,Cc1ccc2nc3n(c2c1)[C@@H](CNC(=O)c1ccncc1)COC3,4.47
16,CN1CCCN(C(=O)NCc2cccnc2-n2cccn2)CC1,-0.342
17,N#Cc1ccc(OCCN2CCn3c(nnc3C3CC3)C2)cc1,6.25
18,COc1cc(NC2CCCNC2)cc(OC)c1 (configuration not stated),17.7
19,CCc1noc(CN2CCC(c3ccnn3CCO)CC2)n1,-5.37
20,Cc1ccc(OC2(C(=O)O)CCN(C/C=C/c3ccco3)CC2)cn1,-5.05
21,COCCNC(=O)NCc1cc(-c2ccncc2)n(C2CCCC2)n1,-13.6
22,COc1ccc2c(CN3CCN(Cc4cccc(F)c4)CC3)n[nH]c2c1,-3.1
23,Cn1cc(S(=O)(=O)Nc2ccc3[nH]c(C4CCC4)nc3c2)cn1,0.665

row,Structure (SMILES),cytotoxicity at 70.5 h [%]
1,CCCN1CCCCC1C(=O)Nc1ccc(-c2nnc[nH]2)cc1 (configuration not stated),-4.51
2,CN(C)C(C(=O)NCC1(Cn2cccn2)CC1)c1ccc(F)cc1 (configuration not stated),3.72
3,Cc1cc(OCC(=O)N2CCCC(c3nccs3)C2)no1 (configuration not stated),-2.96
4,OC1(CNc2cccc(F)c2)CCNCC1,-3.17
5,CC(C)NC(=O)c1nnn(-c2cccc(C(F)(F)F)c2)c1C1CC1,10.4
6,O=C(Cc1cccc(F)c1)N1CCCCC1c1ccn2ccnc2n1 (configuration not stated),29.6
7,CSCCN(C)C(=O)C1(c2ccc(F)cc2F)CCOCC1,-0.975
8,Cc1cccc(CNC2CC(=O)N(Cc3cccc(F)c3)C2)c1 (configuration not stated),-4.77
9,CC(=O)N1CCn2c(COCc3csc(C)n3)cnc2C1C (configuration not stated),-20.1
10,Cc1nnc(N2CCCC3(CN(Cc4ccncc4)CCO3)C2)o1 (configuration not stated),-2.14
11,Cc1ccc(CN2CC[C@H](O)[C@@H](n3ccc(=O)[nH]c3=O)CC2)cc1,-2.58
12,Cn1ccnc1CN1CCCN(C(=O)c2ccc3[nH]nnc3c2)CC1,-4.07
13,CC(C)c1ccc(CNC(c2ccc(F)cn2)C(C)C)cc1 (configuration not stated),0.89
14,Cc1nc2n(n1)CC(NCc1ccc(Cl)c3cccnc13)CC2 (configuration not stated),-8.23
15,Cn1c(=O)c2cc(C(=O)NCc3ccncc3)ccc2n(C)c1=O,2.17
16,Cc1cnc(C(=O)N2CCc3ncnc(C)c3CC2)cn1,-3.63
17,CCc1nc(CN(C)C2CCN(CCOc3ccccc3)C2)no1 (configuration not stated),0.0512
18,Cc1cc(C(F)(F)F)nn1CC(C)C(=O)Nc1ccncc1 (configuration not stated),1.22
19,CN(C)[C@@H]1CCN(c2ncccn2)[C@H]1Cc1ccccc1,-6.06
20,Cc1ccc(-c2noc(C3CCN3C(=O)c3ccc(=O)[nH]n3)n2)s1 (configuration not stated),-4.22
21,CN(C)C(=O)N1CC2(CCOCC2)c2cc(NS(=O)(=O)C3CC3)ccc21,11.5
22,CC(C)OC(=O)[C@@H]1CCN(C(=O)c2ccccn2)[C@@H]1c1ccc(F)cc1,-6.08
23,O=C(NC1CC1)[C@@H]1CCO[C@@H]2CCN(CC3CCC3)C[C@H]21,-2.8

row,Structure (SMILES),cytotoxicity at 70.5 h [%]
1,COCCN1C(=O)[C@H]2CC[C@@H]1CN(C(=O)COc1ccc(F)c(Cl)c1)C2,-9.65
2,Cc1nc(C(C)C)sc1C(C)N(C)C(=O)c1ccc(=O)n(C)n1 (configuration not stated),-1.77
3,O=C(NC1CC1)[C@H]1[C@@H]2CN(Cc3ccc(-c4ccn[nH]4)s3)C[C@@H]21,0.292
4,CC(C)(C(=O)O)S(=O)(=O)c1ccc(Br)cc1,0.0653
5,CC(C)(C)c1nc(CN2CCCC2Cn2cncn2)no1 (configuration not stated),-5.99
6,CC(CCSc1ccccc1)N1CCCN(C(N)=O)CC1 (configuration not stated),28.8
7,CCn1cc(NC(=O)C2CCN(CC(=O)N3CCOCC3)CC2)cn1,-19
8,Cc1ccnc(NC(=O)CCNC(=O)c2ccccc2Cl)c1,-1.99
9,Cn1cc(N2C[C@@H]3CN(Cc4ccoc4)C[C@@H]3C2=O)cn1,-2.46
10,O=C(CCn1nc(C(=O)Nc2ccccc2)ccc1=O)Nc1nccs1,1.25
11,O=C(NC1CCCC1)C1CCN(c2cc(-n3ccnc3)ncn2)CC1,12.8
12,CC(C)(C)c1coc([C@@H]2COCCN2Cc2cnc3ccccc3c2)n1,0.0852
13,O=C(NCC(O)CN1CCc2ccccc2C1)Nc1cccnc1 (configuration not stated),-17.4
14,CC(C)[C@@H]1CN(CCOc2ccc(Cl)cc2)C[C@H]1NS(C)(=O)=O,-3.97
15,CCCOc1cccc(-c2nc3c([nH]2)CCNC3)c1,5.31
16,COc1ccc([C@@H]2NC(=O)N[C@H]3OCCC[C@H]32)cc1,-4.38
17,COCc1ccc(C(=O)N2CCN(CCS(C)(=O)=O)CC2)cc1,-10.7
18,Cc1cc(C)c2cc(CNC3CCCCC3)c3nn(C)c(=O)n3c2c1,5.59
19,CN1CCC(c2nnc(CN3CCC(O)CC3)n2C)CC1,-5.78
20,O=C(COc1ccc(Cl)cc1)N1CCOCC1c1ncon1 (configuration not stated),-1.69
21,CC(C)COC(=O)N1CC(=O)N(Cc2ccc(Cl)cc2)CC(O)C1 (configuration not stated),-3.08
22,Cc1nn(C)c(N2CCOCC2)c1CNCc1ccc(Cl)s1,-2.69
23,O=C(c1nc(=O)[nH][nH]1)N1CCCCCC1,-1.45

row,Structure (SMILES),cytotoxicity at 70.5 h [%]
1,O=C1C(Sc2cnn[nH]2)CCCN1c1ccccc1F (configuration not stated),19
2,O=C(c1ccc2c(c1)CCCC2)N1CCN(c2cnccn2)CC1,-11.8
3,COc1cccc(CN2CCCC2Cn2nc(C)nc2C)c1 (configuration not stated),3.03
4,CN(Cc1nc(C(F)(F)F)cs1)C(=O)CCc1cccnc1,-10.4
5,CC(C)CCc1noc(CN2CCCC(CNS(N)(=O)=O)C2)n1 (configuration not stated),-1.48
6,c1cc(CN2Cc3nccn3CC(Cn3cncn3)C2)ccn1 (configuration not stated),3.67
7,Cc1cn2nc(N3CCn4c(nnc4C(C)C)C3)sc2n1,12
8,CC(O)(CNC(=O)c1cccnc1-n1cccn1)c1ccsc1 (configuration not stated),-7.4
9,CN(Cc1cnn(C)c1)S(=O)(=O)N1CCc2ccccc2C1,7.8
10,Cc1cccnc1NC(=O)CC1(Cn2cnnn2)CCCCC1,-7.45
11,COc1cccc(C)c1C(=O)N1CCc2ncnc(NCCO)c2CC1,-7.07
12,CCOc1cncc(N2CCN(c3ccccc3F)CC2)n1,6.24
13,Cc1cnc2c(c1NCc1cccs1)c(=O)n(C)c(=O)n2C,-16.9
14,COCCNc1cc(C(=O)N2CCOCC2)nc(C)n1,0.483
15,Cc1cnc(N)c(C(=O)C2CCN(C(=O)c3ccccc3F)CC2)c1,-11.6
16,O=C(NCc1cc(-c2ccccc2)no1)NCC1CCCO1 (configuration not stated),-0.266
17,CS(=O)(=O)N1CCC(OCCCc2ccccc2)C1 (configuration not stated),3.28
18,CO[C@H]1CN(S(=O)(=O)c2cn(C)cn2)[C@@H]2CCCO[C@H]12,24.5
19,Cc1ccc(NC2(C(=O)N3CCn4cncc4C3)CCCCC2)cc1C,-12.1
20,CCc1ccc(CC(=O)N2CCN(c3nccn3C)CC2)cc1,8.19
